Legend:
Assay type in all cases: functional
Mus musculus [1] = assay: In vivo inhibitory activity by mouse air-pouch assay at dose 2 MPK was determined.
Mus musculus [2] = organism: Mus musculus; assay: Effective dose was evaluated by mouse air-pouch assay.
Mus musculus [3] = assay: In vivo inhibitory activity by mouse air-pouch assay at dose 2 mg/Kg was determined.
Rattus norvegicus = organism: Rattus norvegicus; assay: Effective dose was evaluated by rat adjuvant arthritis model.

Row | Structure (SMILES) | inhibition in vivo at 2 mg/kg (Mus musculus [1]) | also measured
1 | CS(=O)(=O)c1ccc(-c2[nH]c(C(F)(F)F)nc2-c2cccc(F)c2)cc1 | 92% | 
2 | CS(=O)(=O)c1ccc(-c2[nH]c(C(F)(F)F)nc2-c2ccc(Cl)c(Cl)c2)cc1 | 84% | 
3 | CS(=O)(=O)c1ccc(-c2[nH]c(C(F)(F)F)nc2-c2ccsc2)cc1 | 0% | 
4 | CS(=O)(=O)c1ccc(-c2[nH]c(C(F)(F)F)nc2-c2cccc(Cl)c2)cc1 | 98% | 
5 | CS(=O)(=O)c1ccc(-c2[nH]c(C(F)(F)F)nc2-c2ccc(Cl)cc2)cc1 | 86% | 
6 | CS(=O)(=O)c1ccc(-c2[nH]c(C(F)(F)F)nc2-c2ccccc2)cc1 |  | ED50 (Mus musculus [2]): 0.38 mg/kg; inhibition in vivo at 2 mg/kg (Mus musculus [3]): 95%; ED50 (Rattus norvegicus): 0.16 mg/kg
7 | CS(=O)(=O)c1ccc(-c2[nH]c(C(F)(F)F)nc2-c2ccccc2Cl)cc1 | 86% | 
8 | CS(=O)(=O)c1ccc(-c2[nH]c(C(F)(F)F)nc2-c2cccs2)cc1 | 79% | 
9 | CS(=O)(=O)c1ccc(-c2[nH]c(C(F)(F)F)nc2-c2ccc(F)cc2)cc1 | 99% | 
10 | CS(=O)(=O)c1ccc(-c2[nH]c(C(F)(F)F)nc2NS(=O)(=O)c2ccc(F)cc2)cc1 | 33% | 
11 | Cc1cccc(-c2[nH]c(C(F)(F)F)nc2-c2ccc(S(C)(=O)=O)cc2)c1 | 29% | 
12 | Cc1ccc(-c2[nH]c(C(F)(F)F)nc2-c2ccc(S(C)(=O)=O)cc2)cc1Cl | 0% | 
13 | CS(=O)(=O)c1ccc(-c2[nH]c(C(F)(F)F)nc2-c2cccnc2)cc1 | 29% | 
14 | Cc1c(F)cccc1-c1[nH]c(C(F)(F)F)nc1-c1ccc(S(C)(=O)=O)cc1 | 94% | 
15 | Cc1ccc(-c2cc(C(F)(F)F)nn2-c2ccc(S(N)(=O)=O)cc2)cc1 [CELECOXIB] |  | ED50 (Mus musculus [1]): 0.33 mg/kg; ED50 (Rattus norvegicus): 0.37 mg/kg
16 | CS(=O)(=O)c1ccc(-c2[nH]c(C(F)(F)F)nc2-c2ccc(F)c(F)c2)cc1 | 68% | 
17 | CS(=O)(=O)c1ccc(-c2[nH]c(C(F)(F)F)nc2-c2ccc(F)cc2F)cc1 | 100% | 
